Data from paper PMC11538636, “Electro‐Driven Multi‐Enzymatic Cascade Conversion of CO2 to Ethylene Glycol in Nano‐Reactor” (Advanced Science, 2024).

Columns and labels:
BmFADH = target: T1, BmFADH (Burkholderia multivorans, UniProt A0A0H3KP42); assay: NADH consumption at […] nm; assay type: biochemical; settings: 1 mM NADH, 5 mM NaMeO2, 50 mM phosphate pH 7.5, 2 h
T1 construct: gene fdhA2; recombinant in E. coli BL21(DE3), pETDuet, C-terminal His-tag; Zn2+ dependent
T1 sequence (A0A0H3KP42 1-398): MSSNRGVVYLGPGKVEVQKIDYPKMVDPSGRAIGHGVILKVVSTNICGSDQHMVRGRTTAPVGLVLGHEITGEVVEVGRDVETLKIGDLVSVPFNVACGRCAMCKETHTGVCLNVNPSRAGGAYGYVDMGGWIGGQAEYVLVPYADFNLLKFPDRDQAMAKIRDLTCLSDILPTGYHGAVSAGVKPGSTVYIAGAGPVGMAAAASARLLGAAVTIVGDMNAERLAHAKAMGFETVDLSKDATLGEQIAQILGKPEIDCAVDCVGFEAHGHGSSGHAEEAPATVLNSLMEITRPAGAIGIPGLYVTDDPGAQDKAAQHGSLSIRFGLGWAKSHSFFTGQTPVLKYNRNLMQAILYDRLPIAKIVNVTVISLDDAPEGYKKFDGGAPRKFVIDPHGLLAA

GoADH = test system: T2, GoADH; assay: steady-state kinetics, Michaelis-Menten fit; assay type: biochemical, Gluconobacter oxydans; settings: NADH co-substrate; free enzyme; glycolaldehyde reduction
T2 construct: gene adh; recombinant in E. coli BL21(DE3), pETDuet, C-terminal His-tag; codon-optimized gene; Zn2+ dependent

Row | Km (GoADH) [µM] | Compound | NADH consumption at 340 nm (BmFADH)
1 | – | NC(=O)C1=CN([C@@H]2O[C@H](COP(=O)(O)OP(=O)(O)OC[C@H]3O[C@@H](n4cnc5c(N)ncnc54)[C@H](O)[C@@H]3O)[C@@H](O)[C@H]2O)C=CC1 [NADH] | activity of PaFDH, BmFADH, and GoADH was determined by measuring the consumed NADH
2 | 432 | O=CCO [glycolaldehyde] | –
